From publication PMC4425367 (Journal of medicinal chemistry, 2015)
“Also recorded” adds a separate entry of the source.

Experiments:
hCB2 receptor = hCB2 receptor (Homo sapiens, UniProt P34972); assay: cAMP assay, forskolin-stimulated cAMP in HEK293 cells expressing hCB2; format: cell-based; conditions: for classification hCB2: cAMP functional test
rCB1 receptor = rCB1 receptor (Rattus norvegicus, UniProt P20272); assay: cAMP assay, forskolin-stimulated cAMP in HEK293 cells expressing rCB1; format: cell-based; conditions: cAMP functional test
CB1 receptor = CB1 receptor (Rattus norvegicus, UniProt P20272); format: binding; conditions: 10Ki concentration, incubation extended to 60 min, compared with 30 min
Chain of CB1 receptor (P20272 whole entry): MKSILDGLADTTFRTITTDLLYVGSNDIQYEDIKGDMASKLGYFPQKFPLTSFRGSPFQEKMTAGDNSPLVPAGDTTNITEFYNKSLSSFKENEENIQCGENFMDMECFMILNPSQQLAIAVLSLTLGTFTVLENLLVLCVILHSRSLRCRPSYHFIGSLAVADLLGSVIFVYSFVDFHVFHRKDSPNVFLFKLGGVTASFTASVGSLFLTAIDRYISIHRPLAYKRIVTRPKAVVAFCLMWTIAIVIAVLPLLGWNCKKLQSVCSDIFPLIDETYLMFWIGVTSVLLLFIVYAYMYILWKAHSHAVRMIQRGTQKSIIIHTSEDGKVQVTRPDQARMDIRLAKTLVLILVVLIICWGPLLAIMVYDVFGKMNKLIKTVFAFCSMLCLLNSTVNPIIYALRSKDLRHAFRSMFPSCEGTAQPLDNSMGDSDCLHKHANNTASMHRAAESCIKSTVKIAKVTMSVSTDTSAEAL

Chain of hCB2 receptor (P34972 whole entry): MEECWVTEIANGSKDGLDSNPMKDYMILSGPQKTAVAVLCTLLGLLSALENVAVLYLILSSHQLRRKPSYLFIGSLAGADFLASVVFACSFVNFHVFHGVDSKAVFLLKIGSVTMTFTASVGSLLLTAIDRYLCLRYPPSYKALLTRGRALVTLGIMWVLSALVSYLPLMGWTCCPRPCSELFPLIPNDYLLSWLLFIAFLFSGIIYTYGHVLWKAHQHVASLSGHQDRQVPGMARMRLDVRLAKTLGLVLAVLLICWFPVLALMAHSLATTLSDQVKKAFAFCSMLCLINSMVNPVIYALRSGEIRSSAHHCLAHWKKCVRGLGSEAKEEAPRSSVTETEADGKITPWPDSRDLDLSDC
Chain of rCB1 receptor (P20272 whole entry): as the sequence (P20272 whole entry) above

Compound	classification hCB2 (hCB2 receptor)	classification rCB1 (rCB1 receptor)	response of forskolin-stimulated cAMP accumulation, hCB2 (hCB2 receptor; HEK293 cells expressing hCB2, up to a 3 μM concentration)	CB1 covalent binding, 60 min incubation (CB1 receptor)
CCCCCCC(C)(C)c1ccc([C@@H]2C[C@H](O)CC[C@H]2CCCO)c(O)c1 [CP-55,940, reference compound]	full agonist; also recorded: potent agonist	–	–	–
CC1(C)Oc2cc([C@]34CC5CC(C[C@@](CN=C=S)(C5)C3)C4)cc(O)c2[C@@H]2C[C@H](O)CC[C@H]21 [Compound 16, (6aR,9R,10aR)-3-[(1r,3R)-3-(Isothiocyanatomethyl)-adamantan-1-yl]-6,6-dimethyl-6a,7,8,9,10,10a-hexahydro-6H-benzo[c]chromene-1,9-diol]	inverse agonist	potent agonists; also recorded: agonist	–	–
CC1(C)Oc2cc([C@]34CC5CC(C[C@@](CN=[N+]=[N-])(C5)C3)C4)cc(O)c2[C@@H]2C[C@H](O)CC[C@H]21 [Compound 17, (6aR,9R,10aR)-3-[(1r,3R)-3-(Azidomethyl)adamantan-1-yl]-6,6-dimethyl-6a,7,8,9,10,10a-hexahydro-6H-benzo[c]-chromene-1,9-diol]	neutral antagonists	agonist	no response	–
CC1(C)Oc2cc([C@]34CC5CC(C[C@@](N=C=S)(C5)C3)C4)cc(O)c2[C@@H]2C[C@H](O)CC[C@H]21 [Compound 19, (6aR,9R,10aR)-3-[(1r,3R)-3-Isothiocyanatoadamantan-1-yl]-6,6-dimethyl-6a,7,8,9,10,10a-hexahydro-6H-benzo[c]-chromene-1,9-diol]	neutral antagonists	potent agonists; also recorded: agonist	–	no further increase
CC1(C)Oc2cc([C@]34CC5CC(C[C@@](N=[N+]=[N-])(C5)C3)C4)cc(O)c2[C@@H]2C[C@H](O)CC[C@H]21 [Compound 20, (6aR,9R,10aR)-3-[(1r,3R)-3-Azidoadamantan-1-yl]-6,6-di-methyl-6a,7,8,9,10,10a-hexahydro-6H-benzo[c]chromene-1,9-diol]	neutral antagonists	potent agonists; also recorded: agonist	–	–
CC1(C)Oc2cc([C@]34CC5CC(C[C@@](CC#N)(C5)C3)C4)cc(O)c2[C@@H]2C[C@H](O)CC[C@H]21 [Compound 23, 2-{(1R,3r)-3-[(6aR,9R,10aR)-1,9-Dihydroxy-6,6-dimethyl-6a,7,8,9,10,10a-hexahydro-6H-benzo[c]chromen-3-yl]-adamantan-1-yl}acetonitrile]	inverse agonist	potent agonists; also recorded: agonist	–	–
CC1(C)Oc2cc([C@]34CC5CC(C[C@@](C#N)(C5)C3)C4)cc(O)c2[C@@H]2C[C@H](O)CC[C@H]21 [Compound 25, (1R,3r)-3-[(6aR,9R,10aR)-1,9-Dihydroxy-6,6-dimethyl-6a,7,8,9,10,10a-hexahydro-6H-benzo[c]chromen-3-yl]-adamantane-1-carbonitrile]	inverse agonist	agonist	–	–
COC(=O)N[C@]12CC3CC(C1)C[C@](c1cc(O)c4c(c1)OC(C)(C)[C@@H]1CC[C@@H](O)C[C@@H]41)(C3)C2 [Compound 26, Methyl {(1R,3r)-3-[(6aR,9R,10aR)-1,9-Dihydroxy-6,6-dimethyl-6a,7,8,9,10,10a-hexahydro-6H-benzo[c]chromen-3-yl]-adamantan-1-yl}carbamate]	inverse agonist	agonist	–	–
CC1(C)Oc2cc(C34CC5CC(CC(C5)C3)C4)cc(O)c2[C@@H]2C[C@H](O)CC[C@H]21 [Compound 27, reference compound]	–	agonist	–	–
